Biological target: T1, abc isoform of TMEM16A (Homo sapiens, UniProt Q5XXA6, DEL476-501)
T1 construct: expressed in transfected cells; host or cells: HEK293T
T1 sequence (Q5XXA6 with tags, fused parts or gaps isoform Q5XXA6-5 DEL539-564): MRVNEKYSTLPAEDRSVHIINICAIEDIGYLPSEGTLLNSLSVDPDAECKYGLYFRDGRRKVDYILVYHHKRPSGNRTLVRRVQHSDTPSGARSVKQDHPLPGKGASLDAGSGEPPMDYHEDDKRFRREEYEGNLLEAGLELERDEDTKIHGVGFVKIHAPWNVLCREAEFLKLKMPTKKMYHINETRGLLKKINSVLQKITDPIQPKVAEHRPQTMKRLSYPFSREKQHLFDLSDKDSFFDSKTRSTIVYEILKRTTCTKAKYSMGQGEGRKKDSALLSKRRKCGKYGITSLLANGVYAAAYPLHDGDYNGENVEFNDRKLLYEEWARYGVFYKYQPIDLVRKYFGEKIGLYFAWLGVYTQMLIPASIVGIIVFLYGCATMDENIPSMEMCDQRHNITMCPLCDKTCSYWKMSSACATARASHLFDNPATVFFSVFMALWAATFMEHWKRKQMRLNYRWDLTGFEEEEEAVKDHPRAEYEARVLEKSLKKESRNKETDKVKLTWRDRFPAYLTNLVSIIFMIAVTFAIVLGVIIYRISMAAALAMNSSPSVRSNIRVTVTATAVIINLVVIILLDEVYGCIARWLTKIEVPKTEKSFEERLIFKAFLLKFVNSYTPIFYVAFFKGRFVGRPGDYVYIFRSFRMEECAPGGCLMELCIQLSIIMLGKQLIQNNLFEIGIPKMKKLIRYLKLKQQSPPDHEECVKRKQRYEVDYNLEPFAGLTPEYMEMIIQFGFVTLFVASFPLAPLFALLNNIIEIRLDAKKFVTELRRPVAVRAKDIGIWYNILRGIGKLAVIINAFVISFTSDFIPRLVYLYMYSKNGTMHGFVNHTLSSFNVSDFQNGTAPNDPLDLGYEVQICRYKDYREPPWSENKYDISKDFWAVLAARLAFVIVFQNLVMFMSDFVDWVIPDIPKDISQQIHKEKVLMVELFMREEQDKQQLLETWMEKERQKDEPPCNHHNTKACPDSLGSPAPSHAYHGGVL
Assay: QPatch-48 assay on HEK293T cell line stably expressing the abc isoform
Assay type: cell-based
Settings: 30 μM
Protocol: Using the QPatch-48, we have developed a robust assay for the assessment of TMEM16A small-molecule inhibitors. Many optimization steps were performed to determine the optimal cell culture conditions, internal calcium level, holding potential and voltage protocol, and maximum duration of the assay. It was necessary to control for the culture conditions of the cells and strictly adhere to the cell preparation procedure to obtain high-quality seals. In addition, while the external solution can be used throughout the day, the internal solution should be replaced every 2 h to ensure that the ATP is fresh. Best practices also require solutions to be made weekly and for the osmolarity and pH to be measured accurately. Having met these conditions, the assay results in large currents, averaging a peak current of 6 nA, while maintaining outward rectification that is characteristic of the TMEM16A channel. The benchmark TMEM16A inhibitors that were tested during the validation efforts generated reproducible and expected IC50 values. […] Another HEK293T cell line that stably expressed the abc isoform of TMEM16A also formed high-quality seals and produced large currents.

block of currents: fully blocked
SMILES: CCc1oc2ccccc2c1C(=O)c1cc(Br)c(O)c(Br)c1 [Benzbromarone]
